Laboratory results published in patent publication US20060069132A1, “Azolecarboxamide herbicides” (priority 2004, published 2006).
Where two headings read alike, the source gives them in different places.

Columns and labels:
lambsquarters = test: Test B pre-/postemergence herbicide test; type: in vivo, Chenopodium album; conditions: for Plant response rating (0 to 100 scale), Lambsquarters: 0 is no effect, preemergence
Outline: (§1)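 Visual rating, 0 (no effect) to 100 (complete control), versus untreated controls after 13–15 d in greenhouse. Pre- and postemergence applications (postemergence plants 2–18 cm, 1–4 leaves); flooded paddy arm at 2-leaf stage. Compounds in non-phytotoxic solvent plus surfactant.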

barnyardgrass [1] = test: Test B flooded paddy test; type: in vivo, Echinochloa crus-galli; conditions: 1000 g ai/ha, scale 0 to 100 (0 no effect, 100 complete control)
Outline: (§2)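 Plants grow to 1- to 4-leaf stage (2–18 cm) for postemergence spraying, or to 2-leaf stage for the paddy test. Formulated compound is applied. Greenhouse holding lasts 13–15 days. Response is scored visually relative to controls, 0 no effect to 100 complete control; a dash means no result.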

wheat = test: Test B postemergence herbicide test; type: in vivo, Triticum aestivum; parameters: key to Wheat plant response rating: 0 = no effect, 100 = complete control
Outline: (§3)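 Visual ratings, 0 (no effect) to 100 (complete control), made versus controls after 13–15 d greenhouse. Paddy plants treated at 2-leaf stage; postemergence plants at 1- to 4-leaf stage, 2–18 cm tall.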

rice = test: Test B flooded paddy test; type: in vivo, Oryza sativa; conditions: 1000 g ai/ha, scale 0 to 100 (0 no effect, 100 complete control)
Outline: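 Read-out: visual comparison with controls, scored 0 to 100, where 100 means complete control and 0 no effect. Formulated chemicals were applied postemergence to plants 2–18 cm tall (1- to 4-leaf), or to flooded-paddy plants at the 2-leaf stage, then held 13 to 15 days under glass.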

morningglory = test: Test B pre-/postemergence herbicide test; type: in vivo, Ipomoea coccinea; conditions: for Plant response rating (0 to 100 scale), Morningglory: 0 is no effect, preemergence
Outline: (§4)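 Species tested were Echinochloa crus-galli, Ipomoea coccinea, Xanthium strumarium and Oryza sativa, treated both before emergence and at the 1- to 4-leaf stage; rice and barnyardgrass were also tested under flooding at 2 leaves. Greenhouse incubation lasted 13–15 days before visual 0–100 scoring.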

velvetleaf = test: Test B pre-/postemergence herbicide test; type: in vivo, Abutilon theophrasti; conditions: for Plant response rating (0 to 100 scale), Velvetleaf: 0 is no effect, preemergence
Outline: as §1

giant foxtail = test: Test B pre-/postemergence herbicide test; type: in vivo, Setaria faberi; conditions: for Plant response rating (0 to 100 scale), Foxtail, Giant: 0 is no effect, preemergence
Outline: as §1

ducksalad = test: Test B flooded paddy test; type: in vivo, Heteranthera limosa; conditions: 1000 g ai/ha, scale 0 to 100 (0 no effect, 100 complete control)
Outline: as §2

barnyardgrass [2] = test: Test B pre-/postemergence herbicide test; type: in vivo, Echinochloa crus-galli; conditions: for Plant response rating (0 to 100 scale), Barnyardgrass: 0 is no effect, preemergence; for Barnyardgrass plant response rating: Postemergence
Outline: as §4

cocklebur = test: Test B pre-/postemergence herbicide test; type: in vivo, Xanthium strumarium; conditions: for Plant response rating (0 to 100 scale), Cocklebur: 0 is no effect, preemergence
Outline: as §4

wild oat = test: Test B postemergence herbicide test; type: in vivo, Avena fatua
Outline: as §3

Surinam grass = test: Test B pre-/postemergence herbicide test; type: in vivo, Urochloa decumbens; conditions: for Plant response rating (0 to 100 scale), Surinam Grass: 0 is no effect, preemergence
Outline: as §1

blackgrass = test: Test B postemergence herbicide test; type: in vivo, Alopecurus myosuroides
Outline: as §2

[3] = tested on: small flower umbrella sedge; test: Test B flooded paddy test; type: in vivo, Cyperus difformis; conditions: 1000 g ai/ha, scale 0 to 100 (0 no effect, 100 complete control)
Outline: as §2

pigweed = test: Test B pre-/postemergence herbicide test; type: in vivo, Amaranthus retroflexus; conditions: for Plant response rating (0 to 100 scale), Pigweed: 0 is no effect, preemergence
Outline: as §1

[4] = 125 g ai/ha, 100 is complete control
[5] = Postemergence, 500 g ai/ha, scale 0 (no effect) to 100 (complete control)
[6] = postemergence, 125 g ai/ha, scale 0 to 100

CCc1nn(C(C)C)nc1C(=O)Nc1cccc(C(=O)N(C)C)c1 [Compound 358, N-[3-[(dimethylamino)carbonyl)phenyl]-5-ethyl-2-(1-methylethyl)-2H-1,2,3-triazole-4-carboxamide]
Plant response rating (0 to 100 scale), Lambsquarters (lambsquarters; [4]): 100 | pest or weed control at 125 g/ha (lambsquarters; Chenopodium album, post-emergence, 336 h, 125 g ai/ha, visual rating, scale 0 (no effect) to 100 (complete control), read-out: Lambsquarters plant response rating): 30% | pest or weed control at 500 g/ha (lambsquarters; Chenopodium album, post-emergence, 336 h, postemergence, 500 g ai/ha, scale 0 to 100, 0 is no effect, 100 is complete control, read-out: Lambsquarters plant response rating): 50% | pest or weed control at 500 g/ha (lambsquarters; Chenopodium album, pre-emergence, 336 h, 500 g ai/ha, visual rating, 0 = no effect, 100 = complete control, read-out: Plant response rating, Lambsquarters): 100% | pest or weed control at 1000 g/ha (barnyardgrass [1]; Echinochloa crus-galli, 336 h, read-out: Barnyardgrass plant response rating): 80% | plant injury at 125 g/ha (wheat; Triticum aestivum, post-emergence, 336 h, 125 g ai/ha, visual rating, scale 0 (no effect) to 100 (complete control), read-out: Wheat plant response rating): 0% | plant injury at 500 g/ha (wheat; Triticum aestivum, post-emergence, 336 h, postemergence, 500 g ai/ha, scale 0 to 100, 0 is no effect, 100 is complete control, read-out: Wheat plant response rating): 10% | plant injury at 1000 g/ha (rice; Oryza sativa, 336 h, read-out: Rice plant response rating): 70% | Plant response rating (0 to 100 scale), Morningglory (morningglory; [4]): 50 | pest or weed control at 125 g/ha (morningglory; Ipomoea, post-emergence, 336 h, 125 g ai/ha, visual rating, scale 0 (no effect) to 100 (complete control), read-out: Morningglory plant response rating): 20% | pest or weed control at 500 g/ha (morningglory; Ipomoea, post-emergence, 336 h, postemergence, 500 g ai/ha, scale 0 to 100, 0 is no effect, 100 is complete control, read-out: Morningglory plant response rating): 50% | pest or weed control at 500 g/ha (morningglory; Ipomoea, pre-emergence, 336 h, 500 g ai/ha, visual rating, 0 = no effect, 100 = complete control, read-out: Plant response rating, Morningglory): 100% | Plant response rating (0 to 100 scale), Velvetleaf (velvetleaf; [4]): 50 | pest or weed control at 125 g/ha (velvetleaf; Abutilon theophrasti, post-emergence, 336 h, 125 g ai/ha, visual rating, scale 0 (no effect) to 100 (complete control), read-out: Velvetleaf plant response rating): 10% | pest or weed control at 500 g/ha (velvetleaf; Abutilon theophrasti, post-emergence, 336 h, postemergence, 500 g ai/ha, scale 0 to 100, 0 is no effect, 100 is complete control, read-out: Velvetleaf plant response rating): 20% | Plant response rating (0 to 100 scale), Foxtail, Giant (giant foxtail; [4]): 60 | pest or weed control at 125 g/ha (giant foxtail; Setaria faberi, post-emergence, 336 h, 125 g ai/ha, visual rating, scale 0 (no effect) to 100 (complete control), read-out: Foxtail, Giant plant response rating): 10% | pest or weed control at 500 g/ha (giant foxtail; Setaria faberi, post-emergence, 336 h, postemergence, 500 g ai/ha, scale 0 to 100, 0 is no effect, 100 is complete control, read-out: Foxtail, Giant plant response rating): 30% | pest or weed control at 500 g/ha (giant foxtail; Setaria faberi, pre-emergence, 336 h, 500 g ai/ha, visual rating, 0 = no effect, 100 = complete control, read-out: Plant response rating, Foxtail, Giant): 100% | pest or weed control at 1000 g/ha (ducksalad; Heteranthera limosa, 336 h, read-out: Ducksalad plant response rating): 90% | Plant response rating (0 to 100 scale), Barnyardgrass (barnyardgrass [2]; [4]): 70 | pest or weed control at 125 g/ha (barnyardgrass [2]; Echinochloa crus-galli, post-emergence, 125 g ai/ha, visual rating, scale 0 (no effect) to 100 (complete control), read-out: Barnyardgrass plant response rating): 10% | pest or weed control at 500 g/ha (barnyardgrass [2]; Echinochloa crus-galli, post-emergence, postemergence, 500 g ai/ha, scale 0 to 100, 0 is no effect, 100 is complete control, read-out: Barnyardgrass plant response rating): 20% | pest or weed control at 500 g/ha (barnyardgrass [2]; Echinochloa crus-galli, pre-emergence, 500 g ai/ha, visual rating, 0 = no effect, 100 = complete control, read-out: Plant response rating, Barnyardgrass): 100% | Plant response rating (0 to 100 scale), Cocklebur (cocklebur; [4]): 40 | pest or weed control at 125 g/ha (cocklebur; Xanthium strumarium, post-emergence, 125 g ai/ha, visual rating, scale 0 (no effect) to 100 (complete control), read-out: Cocklebur plant response rating): 0% | pest or weed control at 500 g/ha (cocklebur; Xanthium strumarium, post-emergence, postemergence, 500 g ai/ha, scale 0 to 100, 0 is no effect, 100 is complete control, read-out: Cocklebur plant response rating): 20% | pest or weed control at 500 g/ha (cocklebur; Xanthium strumarium, pre-emergence, 500 g ai/ha, visual rating, 0 = no effect, 100 = complete control, read-out: Plant response rating, Cocklebur): 90% | pest or weed control at 125 g/ha (wild oat; Avena fatua, post-emergence, 336 h, 125 g ai/ha, visual rating, scale 0 (no effect) to 100 (complete control), read-out: Oat, Wild plant response rating): 20% | pest or weed control at 500 g/ha (wild oat; Avena fatua, post-emergence, 336 h, postemergence, 500 g ai/ha, scale 0 to 100, 0 is no effect, 100 is complete control, read-out: Oat, Wild plant response rating): 30% | Plant response rating (0 to 100 scale), Surinam Grass (Surinam grass; [4]): 50 | pest or weed control at 125 g/ha (Surinam grass; Urochloa decumbens, post-emergence, 125 g ai/ha, visual rating, scale 0 (no effect) to 100 (complete control), read-out: Surinam Grass plant response rating): 10% | pest or weed control at 500 g/ha (Surinam grass; Urochloa decumbens, post-emergence, postemergence, 500 g ai/ha, scale 0 to 100, 0 is no effect, 100 is complete control, read-out: Surinam Grass plant response rating): 10% | pest or weed control at 500 g/ha (Surinam grass; Urochloa decumbens, pre-emergence, 500 g ai/ha, visual rating, 0 = no effect, 100 = complete control, read-out: Plant response rating, Surinam Grass): 100% | pest or weed control at 125 g/ha (blackgrass; Alopecurus myosuroides, post-emergence, 336 h, 125 g ai/ha, visual rating, scale 0 (no effect) to 100 (complete control), read-out: Blackgrass plant response rating): 10% | pest or weed control at 500 g/ha (blackgrass; Alopecurus myosuroides, post-emergence, 336 h, postemergence, 500 g ai/ha, scale 0 to 100, 0 is no effect, 100 is complete control, read-out: Blackgrass plant response rating): 40% | pest or weed control at 1000 g/ha ([3]; Cyperus difformis, 336 h, read-out: Sedge, Umbrella plant response rating): 80% | Plant response rating (0 to 100 scale), Pigweed (pigweed; [4]): 70 | pest or weed control at 125 g/ha (pigweed; Amaranthus retroflexus, post-emergence, 336 h, 125 g ai/ha, visual rating, scale 0 (no effect) to 100 (complete control), read-out: Pigweed plant response rating): 20% | pest or weed control at 500 g/ha (pigweed; Amaranthus retroflexus, post-emergence, 336 h, postemergence, 500 g ai/ha, scale 0 to 100, 0 is no effect, 100 is complete control, read-out: Pigweed plant response rating): 40% | pest or weed control at 500 g/ha (pigweed; Amaranthus retroflexus, pre-emergence, 336 h, 500 g ai/ha, visual rating, 0 = no effect, 100 = complete control, read-out: Plant response rating, Pigweed): 100%

CCc1nn(C(C)(C)C)nc1C(=O)Nc1cccc(C(=O)NC2CC2)c1 [Compound 417]
Plant response rating (0 to 100 scale), Lambsquarters (lambsquarters; [4]): 90 | Lambsquarters plant response rating (lambsquarters; [5]): 80 | Lambsquarters plant response rating (lambsquarters; [6]): 70 | Barnyardgrass plant response rating (barnyardgrass [1]): 70 | Wheat plant response rating (wheat; 500 g ai/ha, scale 0 to 100, 0 no effect, 100 complete control, preemergence): 90 | Wheat plant response rating (wheat; [5]): 20 | Wheat plant response rating (wheat; [6]): 10 | Rice plant response rating (rice): 70 | Plant response rating (0 to 100 scale), Morningglory (morningglory; [4]): 0 | Morningglory plant response rating (morningglory; [5]): 60 | Morningglory plant response rating (morningglory; [6]): 50 | Plant response rating (0 to 100 scale), Velvetleaf (velvetleaf; [4]): 50 | Velvetleaf plant response rating (velvetleaf; [5]): 40 | Velvetleaf plant response rating (velvetleaf; [6]): 20 | Plant response rating (0 to 100 scale), Foxtail, Giant (giant foxtail; [4]): 70 | Foxtail, Giant plant response rating (giant foxtail; [5]): 40 | Foxtail, Giant plant response rating (giant foxtail; [6]): 20 | Ducksalad plant response rating (ducksalad): 80 | Plant response rating (0 to 100 scale), Barnyardgrass (barnyardgrass [2]; [4]): 80 | Barnyardgrass plant response rating (barnyardgrass [2]; 125 g ai/ha, scale 0 (no effect) to 100 (complete control)): 10 | Barnyardgrass plant response rating (barnyardgrass [2]; 500 g ai/ha, scale 0 (no effect) to 100 (complete control)): 20 | Plant response rating (0 to 100 scale), Cocklebur (cocklebur; [4]): 0 | Cocklebur plant response rating (cocklebur; [5]): 40 | Cocklebur plant response rating (cocklebur; [6]): 20 | Oat, Wild plant response rating (wild oat; [5]): 40 | Oat, Wild plant response rating (wild oat; [6]): 10 | Plant response rating (0 to 100 scale), Surinam Grass (Surinam grass; [4]): 80 | Surinam Grass plant response rating (Surinam grass; [5]): 30 | Surinam Grass plant response rating (Surinam grass; [6]): 10 | Blackgrass plant response rating (blackgrass; [5]): 40 | Blackgrass plant response rating (blackgrass; [6]): 10 | Sedge, Umbrella plant response rating [3]: 70 | Plant response rating (0 to 100 scale), Pigweed (pigweed; [4]): 90 | Pigweed plant response rating (pigweed; [5]): 80 | Pigweed plant response rating (pigweed; [6]): 50
